The subject of one series is NCI-H1975. The series is classed as in vivo, BALB/c nude mice. The conditions noted are these: for Inhibition of growth of NCI-H1975 in nude mice (in words): 60 mpk; for Inhibition of growth of NCI-H1975 in nude mice (in words) / Tolerability in mice: 60 mg/kg; for Tolerability in mice: mouse, in vivo, po; for Inhibition of growth of NCI-H1975 in nude mice (in words) / Tumor volume: NCI-H1975 nude mice; for Tumor volume: 60 mg/kg PO QD. An excerpt: Preparation method: dissolve the test compound in 20% PEG400+3% Tween80 to obtain a required concentration; dissolve the control group in 0.5% CMC+0.4% Tween80 to obtain a required concentration.
BALB/c nude mice (Shanghai xipuer-bikai experimental animals company), weight 16-18 g, female. BD matrigel, NCI-H1975 cell (ATCC)
Cells in logarithmic phase were collected. The ratio of medium to matrigel was 1:1. The concentration of cell was adjust to 3×10^7/ml and put into a ice box, then inoculated in each nude mice subcutaneously with 0.2 ml. Then carry out intragastric administration once a day for 5 days and stop administration for 2 days. Administrate for 9 days in total. Dosages are as follows:
The size and weight were measured. The length and width of tumors were measured individually with microcalipers. Tumor volume (V) and relative tumor volume (RTV) was calculated as formula. Day 12, all the nude mouse were killed and the tumors were taken out and pictured. The individual as follows: RTV=Vt/V0, where Vt is and V0 is. and the calculation formula is T/C (%)=mean RTV of the treated group/mean RTV of the control group×100%.
(1) Tumor volume (Tumor Volume, TV), calculation formula: […], wherein a and b presents length and width respectively.
(2) Relative Tumor Volume (RTV), calculation formula: RTV=Vt/V0.
Wherein TV0 is the volume on the day of initial treatment, TVt is the volume on each day of measurement.
(3) The relative tumor increment rate T/C (%), calculation formula: […]
TRTV: treated group RTV; CRTV: negative control group RTV.
Therapeutic effect of compound was expressed in terms of T/C %.

A further series deals with EGFR (Homo sapiens, UniProt P00533). The experiment in a line: Mobility shift assay, kinase inhibition (EGFR). The format is biochemical. The conditions noted are these: read-out: Kinase inhibitory activity IC50 (nM) EGFR. The protocol: (§1) Enzyme activity assay was test by the Mobility shift assay method (Expert Opin Drug Discov. 2008, 3(6): 607-621). A 10 mM stock solution of the test compound in DMSO were made after weighing. According to the required concentration, proper quantity of the 10 mM stock solution was dissolved in water to get a work solution with a concentration 5 times the final concentration. And various kinases, EGFR, HER2, HER4 were dissolved into a reaction buffer with a concentration 1.25 times the required concentration (62.5 mM HEPES, pH7.5, 0.001875% Brij-35, 12.5 mM MgCl2, 2.5 mM DTT), and get a enzyme work solution with a concentration 2.5 times the final concentration. At the same time, ATP and FAM tag peptide substrates will be dissolved in the reaction buffer with a concentration of 1.25× to get a substrate and ATP working solution with a concentration 2.5 times the required concentration. Then 5 μl the work solution of compound is added to 384 wells test plate, 5 μl 250 mM EDTA is added to a blank control, the same volume of work solution without drug is added to the negative control (Max). 10 μl Enzyme work solution is added at the same time. After mix gently and hatch for 10 minutes at room temperature, 10 μl substrate and ATP work solution are added to each well. The test plates are placed at 28 degrees for 60 mins. Then 25 μl suspending liquid is added into each reaction well (100 mM HEPES, pH7.5, 0.015% Brij-35, 0.2% Coating Reagent#3, 50 mM EDTA) to quench the enzyme reaction. Finally, the plate is put on Caliper EZ reader to collect conversion rate of the substrate in each well (The phosphorylation ratio of the substrate caused by the kinases). Based on the data described above, the kinase inhibitory of the compound can be calculated as follows: % inh=(Max−conversion)/(Max−Min)×100, wherein % inh is percent inhibition, Max is the conversion ratio of the substrate in negative control well, min is the conversion ratio of the substrate in blank control well, conversion is the conversion rate of substrate in each well with various concentration of the test compound. The % inh value of each concentration of the test compound would be analyzed in Xlift to obtain the corresponding IC50 value, the curve fitting formula is: Y=Bottom+(Top−Bottom)/(1+10^((Log IC50−X)*Hillslope))

The target in the next series is T1, EGFR tyrosine kinase (Homo sapiens, UniProt P00533).
T1 construct: purchased Sigma Aldrich
The experiment in a line: HTRF assay, inhibition of EGFR tyrosine kinase. The format is biochemical. The note with it: HTRF method. The protocol:
The activity of inhibitory against the kinase of the test compound is expressed by IC50. The assays are performed by Homogeneous time-resolved fluorescence (HTRF) method which is as follows: a series of synthesized analogues with gradient concentration are incubated for 5 minutes in enzymatic solution with specific concentration (for EGFR) at room temperature. Then proper amount of substrate and ATP are added into the reaction mixture to start the enzyme reaction. The assays of the specific concentration of compound is measured by Flexstation III of Molecular device company after the stop buffer and detecting liquid are added to the enzyme reaction system and hatch at room temperature for 1 hour. And the activity of inhibitory against the kinase of the test compound with different concentration will be calculated, then according to the 4-parameter equation, fit the inhibitory activity of the test compound with different concentration to get the IC50. EGFR is purchased from Sigma Aldrich. The HTRF KinEASE-TK is purchased from Cisbio Bioassays. ATP is purchased from Sigma Aldrich.
(TR-FRET usually uses a lanthanide donor and a delayed reading to cut background.)

The next series has as its system A431 cell. The experiment in a line: Proliferation inhibition, A431 cells (CellTiter-Glo). The conditions noted are these: Homo sapiens, A-431, 48 hours. The series is classed as cell-based. The protocol: (§2) This example is to determine the proliferation inhibitory activity against wide type of high expression cell lines A431 of EGFR and mutant cell lines NCI-H1975^L858RT790M, the proliferation inhibitory activity in cell-based level of compound is expressed by IC50. The test method is as follows: both cell lines are purchased from American type culture collection (ATCC). The cells are seeded in a white and opaque 384-well culture plate with a proper concentration (A431: 20000 cells/ml medium; H1975: 15000 cells/ml medium), cultured at 37° C. with 5% CO2 for 24 hrs, a series of medicine with gradient concentration is added, generally 10 concentrations, cultured for another 48 hours under the previous conditions. The assays of the proliferation inhibitory activity against the A431 and H1975 cell of the test compounds are performed by the CellTiter-Glo Luminescent Cell Viability Assay and calculate the proliferation inhibitory activity of compound with different concentrations. CellTiter-Glo Luminescent Cell Viability Assay is purchased from Promega. Fit the data of proliferation inhibitory activity against A431 and H1975 of compounds with different concentrations with 4-parameter equation.
In general terms: Cellular ATP, detected with luciferase, serves as a proxy for viable cell number.

In series [1] the test system is NCI-H1975 L858R T790M cell. As to the kind of experiment: Proliferation inhibition, H1975 cells (CellTiter-Glo). The note with it: Homo sapiens, 48 hours. The format is cell-based. The protocol:
as §2

In a further series the target is HER2 (Homo sapiens, UniProt P04626). The experiment in a line: Mobility shift assay, kinase inhibition (HER2). The note with it: read-out: Kinase inhibitory activity IC50 (nM) HER2. The format is biochemical. The protocol: as §1
A further series concerns the target HER4 (Homo sapiens, UniProt Q15303). The experiment in a line: Mobility shift assay, kinase inhibition (HER4). The conditions noted are these: read-out: Kinase inhibitory activity IC50 (nM) HER4. The format is biochemical. The protocol:
as §1

Where a name gives a salt, the structure may show the parent alone. Read-outs that look alike come from different tables or passages of the source.

Sequence of HER2 (P04626 23-1255): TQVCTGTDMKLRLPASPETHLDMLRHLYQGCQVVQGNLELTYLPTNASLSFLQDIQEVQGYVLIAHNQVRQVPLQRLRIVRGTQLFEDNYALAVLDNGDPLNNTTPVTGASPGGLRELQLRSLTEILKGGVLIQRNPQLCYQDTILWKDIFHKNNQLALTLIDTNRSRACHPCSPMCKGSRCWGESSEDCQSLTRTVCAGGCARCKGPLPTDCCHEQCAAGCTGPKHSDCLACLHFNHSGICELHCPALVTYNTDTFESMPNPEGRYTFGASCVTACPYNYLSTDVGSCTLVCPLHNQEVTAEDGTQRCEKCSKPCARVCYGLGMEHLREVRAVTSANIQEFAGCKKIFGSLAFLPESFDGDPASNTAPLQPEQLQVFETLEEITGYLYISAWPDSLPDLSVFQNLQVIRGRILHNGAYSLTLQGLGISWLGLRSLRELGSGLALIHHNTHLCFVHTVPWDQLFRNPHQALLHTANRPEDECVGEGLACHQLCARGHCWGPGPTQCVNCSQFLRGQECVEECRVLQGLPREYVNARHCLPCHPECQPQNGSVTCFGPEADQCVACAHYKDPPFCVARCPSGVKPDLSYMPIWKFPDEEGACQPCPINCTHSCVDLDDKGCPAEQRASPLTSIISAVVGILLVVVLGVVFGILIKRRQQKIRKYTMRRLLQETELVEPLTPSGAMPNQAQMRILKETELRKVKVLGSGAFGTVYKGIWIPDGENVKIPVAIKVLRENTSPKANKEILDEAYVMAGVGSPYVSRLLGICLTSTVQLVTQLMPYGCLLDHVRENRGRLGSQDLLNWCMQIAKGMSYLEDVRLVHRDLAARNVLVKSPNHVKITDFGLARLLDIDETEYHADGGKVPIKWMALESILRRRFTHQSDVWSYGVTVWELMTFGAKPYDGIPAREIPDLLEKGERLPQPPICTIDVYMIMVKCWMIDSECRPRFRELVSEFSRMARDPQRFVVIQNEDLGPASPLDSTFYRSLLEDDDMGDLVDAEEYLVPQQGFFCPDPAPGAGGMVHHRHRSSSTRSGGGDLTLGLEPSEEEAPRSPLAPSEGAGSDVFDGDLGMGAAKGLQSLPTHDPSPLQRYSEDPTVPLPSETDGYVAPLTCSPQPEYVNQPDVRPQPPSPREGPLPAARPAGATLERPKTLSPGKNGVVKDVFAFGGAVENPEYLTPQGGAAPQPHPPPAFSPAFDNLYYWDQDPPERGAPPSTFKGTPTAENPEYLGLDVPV
Sequence of HER4 (Q15303 26-1308): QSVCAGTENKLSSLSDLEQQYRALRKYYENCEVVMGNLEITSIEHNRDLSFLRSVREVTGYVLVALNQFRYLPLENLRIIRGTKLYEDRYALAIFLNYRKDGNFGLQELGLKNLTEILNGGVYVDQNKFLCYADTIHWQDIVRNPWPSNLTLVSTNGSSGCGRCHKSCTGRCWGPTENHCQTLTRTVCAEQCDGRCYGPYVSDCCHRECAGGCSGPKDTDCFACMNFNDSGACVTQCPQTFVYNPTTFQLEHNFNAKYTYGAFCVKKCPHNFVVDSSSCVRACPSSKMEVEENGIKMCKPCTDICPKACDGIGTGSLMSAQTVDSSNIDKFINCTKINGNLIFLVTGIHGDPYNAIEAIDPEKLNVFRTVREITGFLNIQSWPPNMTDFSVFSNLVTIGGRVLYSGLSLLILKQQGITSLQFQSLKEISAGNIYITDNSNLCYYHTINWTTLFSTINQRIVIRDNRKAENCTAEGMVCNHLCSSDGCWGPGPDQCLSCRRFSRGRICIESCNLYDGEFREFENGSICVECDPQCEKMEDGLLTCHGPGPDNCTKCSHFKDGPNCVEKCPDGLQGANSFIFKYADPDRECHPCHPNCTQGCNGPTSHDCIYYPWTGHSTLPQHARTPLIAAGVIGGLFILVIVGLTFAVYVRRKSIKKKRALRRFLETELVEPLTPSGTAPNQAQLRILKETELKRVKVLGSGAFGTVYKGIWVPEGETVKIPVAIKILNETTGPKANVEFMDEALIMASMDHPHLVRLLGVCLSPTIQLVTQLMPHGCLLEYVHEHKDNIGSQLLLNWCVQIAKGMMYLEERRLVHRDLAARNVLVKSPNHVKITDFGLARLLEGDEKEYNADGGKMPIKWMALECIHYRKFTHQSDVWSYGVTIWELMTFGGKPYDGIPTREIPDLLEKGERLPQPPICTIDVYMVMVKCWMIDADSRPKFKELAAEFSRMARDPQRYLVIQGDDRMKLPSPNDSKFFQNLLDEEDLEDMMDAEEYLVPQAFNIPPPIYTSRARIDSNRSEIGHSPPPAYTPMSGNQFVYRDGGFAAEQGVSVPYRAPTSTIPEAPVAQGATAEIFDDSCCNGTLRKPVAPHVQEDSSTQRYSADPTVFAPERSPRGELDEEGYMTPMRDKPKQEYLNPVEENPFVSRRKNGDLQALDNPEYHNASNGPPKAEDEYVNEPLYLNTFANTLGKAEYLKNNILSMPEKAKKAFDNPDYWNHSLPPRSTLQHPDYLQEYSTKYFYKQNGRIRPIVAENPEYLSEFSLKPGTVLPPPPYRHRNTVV
Sequence of EGFR (P00533 25-1210): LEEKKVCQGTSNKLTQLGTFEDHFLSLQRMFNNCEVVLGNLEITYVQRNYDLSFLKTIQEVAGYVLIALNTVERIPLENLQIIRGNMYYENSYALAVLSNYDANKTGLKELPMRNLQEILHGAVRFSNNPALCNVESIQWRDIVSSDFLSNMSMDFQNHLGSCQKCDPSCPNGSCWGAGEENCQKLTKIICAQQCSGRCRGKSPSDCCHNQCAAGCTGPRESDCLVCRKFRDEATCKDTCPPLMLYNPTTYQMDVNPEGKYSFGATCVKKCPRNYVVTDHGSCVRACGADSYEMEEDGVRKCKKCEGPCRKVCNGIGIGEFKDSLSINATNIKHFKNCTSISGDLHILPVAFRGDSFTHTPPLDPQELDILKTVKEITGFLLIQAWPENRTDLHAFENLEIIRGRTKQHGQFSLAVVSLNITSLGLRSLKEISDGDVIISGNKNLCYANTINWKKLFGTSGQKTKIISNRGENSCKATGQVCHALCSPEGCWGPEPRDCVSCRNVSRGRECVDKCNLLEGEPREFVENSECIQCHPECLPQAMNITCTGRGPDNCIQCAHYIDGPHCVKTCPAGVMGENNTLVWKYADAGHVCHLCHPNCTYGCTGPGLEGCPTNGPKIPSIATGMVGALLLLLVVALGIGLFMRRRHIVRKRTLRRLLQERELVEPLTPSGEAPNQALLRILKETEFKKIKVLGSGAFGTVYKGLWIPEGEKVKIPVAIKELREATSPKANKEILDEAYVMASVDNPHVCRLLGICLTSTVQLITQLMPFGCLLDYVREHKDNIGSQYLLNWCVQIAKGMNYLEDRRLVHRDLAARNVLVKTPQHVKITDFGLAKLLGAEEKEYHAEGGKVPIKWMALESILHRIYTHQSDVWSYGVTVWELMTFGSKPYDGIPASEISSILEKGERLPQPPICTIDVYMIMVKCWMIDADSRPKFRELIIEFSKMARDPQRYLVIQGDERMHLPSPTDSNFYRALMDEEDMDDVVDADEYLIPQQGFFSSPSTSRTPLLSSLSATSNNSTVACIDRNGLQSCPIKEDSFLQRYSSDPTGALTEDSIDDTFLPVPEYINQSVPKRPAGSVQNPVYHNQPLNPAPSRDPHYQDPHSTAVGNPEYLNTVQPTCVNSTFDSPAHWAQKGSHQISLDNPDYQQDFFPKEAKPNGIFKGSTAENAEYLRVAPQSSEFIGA
T1 sequence (P00533 25-1210): as above

With `COc1cc2ncnc(Nc3ccc(F)c(Cl)c3)c2cc1NC(=O)/C(F)=C/CN(C)C` [2-1(hydrochloride), (Z)—N-(4-((3-chloro-4-fluorophenyl)amino)-7-methoxyquinazolin-6-yl)-4-(dimethylamino)-2-fluorobut-2-enamide], in the series on NCI-H1975, the “Inhibition of growth of NCI-H1975 in nude mice (in words)” value is “significantly inhibit the growth” and the Tolerability in mice entry is on record as “well tolerated”.

For orientation: IC50 means the concentration at which inhibition is half-maximal. Regarding `COCCOc1cc2ncnc(Nc3ccc(F)c(Cl)c3)c2cc1NC(=O)C(F)=CCN(C)C` (mixture of isomers) [Compound 3-1, N-(4-((3-chloro-4-fluorophenyl)amino)-7-(2-methoxyethoxy)quinazolin-6-yl)-4-(dimethylamino)-2-fluorobut-2-enamide], the IC50 on EGFR was determined as 2.5 nM.

`C=C(F)C(=O)Nc1cc2c(Nc3ccc(F)c(Cl)c3F)ncnc2cc1OCC1CCN(C)CC1` [Compound 6, N-(4-((3-chloro-2,4-difluorophenyl)amino)-7-((1-methylpiperidin-4-yl)methoxy)quinazolin-6-yl)-2-fluoroacrylamide]: the IC50 at EGFR tyrosine kinase came out at 0.54 nM; with A431 cell, 500 nM; in series [1], 1200 nM. For the same molecule, the Tumor volume was found to be 179 ± 13 mm^3 with NCI-H1975 (Day 0); 154 ± 35 mm^3 in the series with NCI-H1975 (Day 2); 113 ± 26 mm^3 in the series on NCI-H1975 (Day 4); 66 ± 16 mm^3 with NCI-H1975 (Day 7); 58 ± 11 mm^3 in the series on NCI-H1975 (Day 9); 57 ± 11 mm^3 in the series on NCI-H1975 (Day 11). In addition, the Tolerability in mice result with NCI-H1975 was “well tolerated”.

Regarding `COc1cc2ncnc(Nc3ccc(F)c(Cl)c3)c2cc1NC(=O)/C(F)=C/CN(C)C` [Compound 2-1, (Z)—N-(4-((3-chloro-4-fluorophenyl)amino)-7-methoxyquinazolin-6-yl)-4-(dimethylamino)-2-fluorobut-2-enamide], the IC50 on EGFR was 1.3 nM; on HER2, 75 nM; on HER4, 23 nM. Also, the Tumor volume in the series on NCI-H1975 (Day 0) was 190 ± 17 mm^3; in the series with NCI-H1975 (Day 2), 153 ± 11 mm^3; in the series with NCI-H1975 (Day 4), 121 ± 27 mm^3; in the series on NCI-H1975 (Day 7), 130 ± 20 mm^3; in the series with NCI-H1975 (Day 9), 134 ± 27 mm^3; in the series on NCI-H1975 (Day 11), 164 ± 33 mm^3. Moreover, the “Inhibition of growth of NCI-H1975 in nude mice (in words)” value in the series on NCI-H1975 was “strong inhibitory”.

As for `COc1cc2ncnc(Nc3ccc(F)c(Cl)c3)c2cc1NC(=O)C(F)=CCN(C)C` (mixture of isomers) [Compound 1, N-(4-((3-chloro-4-fluorophenyl)amino)-7-methoxyquinazolin-6-yl)-4-(dimethylamino)-2-fluorobut-2-enamide], the IC50 on EGFR is 1.7 nM; at HER2 it was 168 nM; on HER4, 21 nM.

On to `COc1cc2ncnc(Nc3ccc(OCc4ccccn4)c(Cl)c3)c2cc1NC(=O)/C(F)=C/CN(C)C` [Compound 4-1, (Z)—N-(4-((3-chloro-4-(pyridin-2-ylmethoxy)phenyl)amino)-7-methoxyquinazolin-6-yl)-4-(dimethylamino)-2-fluorobut-2-enamide], for which the IC50 on HER2 worked out at 62 nM.

As for `COc1cc2ncnc(Nc3ccc(OCc4ccccn4)c(Cl)c3)c2cc1NC(=O)/C(F)=C\CN(C)C` [Compound 4-2, (E)-N-(4-((3-chloro-4-(pyridin-2-ylmethoxy)phenyl)amino)-7-methoxyquinazolin-6-yl)-4-(dimethylamino)-2-fluorobut-2-enamide], the IC50 is 9.5 nM on EGFR, 64 nM at HER2 and 206 nM at HER4.

For `COc1cc2ncnc(Nc3ccc(F)c(Cl)c3)c2cc1NC(=O)/C(F)=C\CN(C)C` [Compound 2-2, (E)-N-(4-((3-chloro-4-fluorophenyl)amino)-7-methoxyquinazolin-6-yl)-4-(dimethylamino)-2-fluorobut-2-enamide], the figures for the half-inhibitory concentration (IC50) at EGFR, on HER2 and at HER4 were 4.5 nM, 369 nM and 63 nM, respectively.

As for `C=C(F)C(=O)Nc1cc2c(Nc3ccc(F)c(Cl)c3)ncnc2cc1OCCCN1CCOCC1` [Compound 5, N-(4-((3-chloro-4-fluorophenyl)amino)-7-(3-morpholinopropoxy)quinazolin-6-yl)-2-fluoroacrylamide], the concentration for half-maximal inhibition (IC50) on EGFR tyrosine kinase amounted to 0.39 nM; in the series on A431 cell, 3200 nM; in series [1], 2500 nM. Further, the Tumor volume in the series with NCI-H1975 (Day 0) is listed as 177 ± 17 mm^3; with NCI-H1975 (Day 2) it was 160 ± 11 mm^3; with NCI-H1975 (Day 4), 164 ± 27 mm^3; with NCI-H1975 (Day 7) it was 147 ± 20 mm^3; in the series with NCI-H1975 (Day 9) it was 151 ± 27 mm^3; in the series with NCI-H1975 (Day 11), 131 ± 33 mm^3. For the same molecule, the Tolerability in mice result in the series on NCI-H1975 was “well tolerated”.

The values above are taken from patent US9371292B2, “Quinazoline derivative, preparation method therefor, intermediate, composition and application thereof” (SHANGHAI PHARMACEUTICALS HOLDINGS CO., LTD., priority 2011, dated 2016).
